Laboratory results as given in patent US6642250B2, “1,8-naphthyridin-2(1H)-one derivatives” (Grelan Pharmaceutical Co., Ltd., priority 1999, dated 2003).
pIC50: −log10 of the molar value.

Legend:
[1] = system: T1, PDE IV; assay: PDE inhibition, type IV PDE (cAMP substrate); type: biochemical; conditions: PDE IV from porcine hearts, cAMP 1 μM; read-out: Inhibition of PDE Isoenzymes (IC50) IV
T1 construct: other: PDE IV from porcine hearts, cAMP 1 μM
Protocol: (§1) The assays for PDE activity were conducted according to Nicholson et al. method (Br. J. Pharmacol., 97, 889 (1989)).
(§2) Among PDE isozymes, type I, II, III and IV PDEs as used herein were separated from porcine hearts by using an anion exchange chromatography. Type V PDE was also separated from porcine aortae with an anion exchange chromatography and used herein.
(§3) Each PDE isozyme was admixed with ethylene glycol (EG) to adjust the final EG concentration to 30%, then stored at −20° C. and diluted when used. The enzymatic activity for PDE I and V was measured using cGMP as a substrate while that for POE II, III and IV was measured using cAMP.
(§4) [^3H]-cAMP (962 GBq/mmol; Amersham, 25 μl (100,000 cpm)) or [^3H]-cGMP (962 GBq/mmol; Amersham, 25 μl (100,000 cpm)) was added together with each PDE isozyme (25 μl) to an incubation buffer solution with the composition given below to adjust the total volume to 250 μl. Each test compound was dissolved in DMSO to adjust the final concentration to 1% (2.5 μl/tube).
(§5) Incubation buffer solution (pH7.5):
(§6) Tris-HCl (50 mM), magnesium chloride (6 mM), dithiothreitol
(§7) (2.5 mM), 5-nucleotidase (4 μg/ml), bovine serum albumin
(§8) (0.23 mg/ml), and cAMP (1 μM) [or cGMP (1 μM)]
(§9) A mixture of the aforementioned test compound solution and the buffer solution was incubated at 30° C. for 20 minutes. The reaction was quenched by admixing with 1 ml of anion exchange resin slurry (AG1-X8, 200-400 meshes, chloride form; Bio-Rad) to absorb unreacted substrates.
(§10) After the reaction stopped, the mixture was centrifuged at 200×g for 10 minutes, and the resulting supernatant was collected with vials in 250 μl aliquots. To each vial was added 5 ml of ACS-II (scintillator, Amersham). The radioactivity was measured with a liquid scintillator counter for [^3H]-adenosine or [^3H]-guanosine and set as the PDE activity. The measurements were conducted under conditions wherein the enzymatic activity was elevated by adding calmodulin (20 U/ml; Amersham) and calcium chloride (0.1 mM) for PDE-I and cGMP (1 μM) for PDE II, respectively.
(§11) The % inhibition was calculated for test compounds, and IC50 (the concentration of each test compound required for 50% inhibition) was obtained by Probit method. The aforementioned rolipram ((−)-isomer, optical purity: 91% e.e.) known as the PDE IV inhibitor in the prior art was used for the reference compound in this assay.
Further, for a comparison with compounds as disclosed in JP, A, 63-159382 (1988), the PDE-inhibiting activity was also measured for Compounds A and D in Table 1 of JP, A, 63-159382 (1988).

[2] = system: PDE I; assay: PDE inhibition, type I PDE (cGMP substrate, calmodulin/CaCl2 added); type: biochemical; conditions: PDE I from porcine hearts, cGMP 1 μM; read-out: Inhibition of PDE Isoenzymes (IC50) I
Protocol: as §1, §2, §3, §4, §5, §6, §7, §8, §9, §10, §11

[3] = target: T2, PDE II (Sus scrofa, UniProt F1SUV3); assay: PDE inhibition, type II PDE (cAMP substrate, cGMP added); type: biochemical; conditions: PDE II from porcine hearts, cAMP 1 μM; read-out: Inhibition of PDE Isoenzymes (IC50) II
T2 sequence (F1SUV3 1-945): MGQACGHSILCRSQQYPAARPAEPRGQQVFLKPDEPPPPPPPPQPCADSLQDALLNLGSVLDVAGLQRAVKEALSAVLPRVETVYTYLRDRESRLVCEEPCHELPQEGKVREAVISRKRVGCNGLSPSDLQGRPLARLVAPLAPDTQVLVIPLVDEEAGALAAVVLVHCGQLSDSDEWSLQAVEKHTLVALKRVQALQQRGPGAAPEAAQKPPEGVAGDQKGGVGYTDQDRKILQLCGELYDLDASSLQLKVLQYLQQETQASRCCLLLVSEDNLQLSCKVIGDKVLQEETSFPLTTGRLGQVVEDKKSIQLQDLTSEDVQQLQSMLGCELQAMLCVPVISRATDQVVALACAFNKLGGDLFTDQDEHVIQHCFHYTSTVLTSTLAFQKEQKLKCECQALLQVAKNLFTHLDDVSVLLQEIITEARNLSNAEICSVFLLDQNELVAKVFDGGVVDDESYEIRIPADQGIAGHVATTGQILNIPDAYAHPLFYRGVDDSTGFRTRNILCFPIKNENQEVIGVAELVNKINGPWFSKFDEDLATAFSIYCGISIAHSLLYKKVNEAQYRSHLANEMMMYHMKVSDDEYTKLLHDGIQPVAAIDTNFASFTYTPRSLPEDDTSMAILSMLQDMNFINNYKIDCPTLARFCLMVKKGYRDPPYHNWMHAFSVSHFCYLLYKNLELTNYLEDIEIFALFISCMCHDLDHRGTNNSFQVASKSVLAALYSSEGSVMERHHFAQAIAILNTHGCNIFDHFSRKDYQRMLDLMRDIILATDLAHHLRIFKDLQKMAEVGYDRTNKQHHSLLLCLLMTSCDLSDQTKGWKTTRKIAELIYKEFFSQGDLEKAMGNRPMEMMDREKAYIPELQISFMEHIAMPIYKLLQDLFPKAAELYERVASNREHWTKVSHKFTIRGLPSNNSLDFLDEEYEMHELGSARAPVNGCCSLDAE
Protocol: as §1, §2, §3, §4, §5, §6, §7, §8, §9, §10, §11

[4] = system: Female beagles; type: in vivo; conditions: fed female beagles, oral, emesis within 3 hours
Protocol: Female beagles (each group consisting of 3 dogs) as used herein were fed. One hour later, a suspension of each test compound in 0.5% CMC—Na solution was administered orally to the animals in a forced manner. […] Next, each maximum tolerance dose against emesis was obtained. […]

`O=c1c(CCCc2ccncc2)cc2cccnc2n1-c1cccc([N+](=O)[O-])c1` [Example No. 8, 1-(3-Nitrophenyl)-3-[3-(pyridin-4-yl)propyl]-1,8-naphthyridin-2(1H)-one] was tested, and the pIC50 [1] was 6.36, the pIC50 [2] was under 4.00 and the pIC50 [3] was under 4.00. For the same compound, the “Maximum Tolerance Dose against Emesis” value [4] was 0.3 mg/kg.
`COc1ccc(C2CNC(=O)C2)cc1OC1CCCC1` (single isomer, unassigned) [Rolipram, rolipram, reference compound] showed a pIC50 [1] of 5.49 to 6.11, a pIC50 [2] of under 4.00 and a pIC50 [3] of under 4.00. For the same compound, the “Maximum Tolerance Dose against Emesis” value [4] was under 0.1 mg/kg.
Work on `O=c1c(CCCc2cccnc2)cc2cccnc2n1-c1cccc([N+](=O)[O-])c1` [Example No. 7, 1-(3-Nitrophenyl)-3-[3-(pyridin-3-yl)propyl]-1,8-naphthyridin-2(1H)-one] yielded a pIC50 [1] of 5.89, a pIC50 [2] of under 4.00 and a pIC50 [3] of under 4.00.
For `CSc1cccc(-n2c(=O)c(CCCc3ccncc3)cc3cccnc32)c1` [Example No. 10, 1-(3-Methylthiophenyl)-3-[3-(pyridin-4-yl)propyl]-1,8-naphthyridin-2(1H)-one], the pIC50 [1] was 5.82, the pIC50 [2] was under 4.00 and the pIC50 [3] was 4.28.
Compound `O=c1c(CCCCc2cccnc2)cc2cccnc2n1-c1cccc([N+](=O)[O-])c1` [Example No. 14, 1-(3-Nitrophenyl)-3-[4-(pyridin-3-yl)butyl]-1,8-naphthyridin-2(1H)-one] has a pIC50 [1] of 5.82, a pIC50 [2] of 4.08 and a pIC50 [3] of 4.07.
`O=c1c(Cc2cccnc2)cc2cccnc2n1-c1cccc([N+](=O)[O-])c1` [Example No. 2, 1-(3-Nitrophenyl)-3-(pyridin-3-ylmethyl)-1,8-naphthyridin-2(1H)-one] gave a pIC50 [1] of 6.96, a pIC50 [2] of under 4.00 and a pIC50 [3] of under 4.00.
In the case of `O=c1c(CCCc2ccncc2)cc2cccnc2n1-c1cccnc1` [Example No. 23, 1-(Pyridin-3-yl)-3-[3-(pyridin-4-yl)propyl]-1,8-naphthyridin-2(1H)-one], the pIC50 [1] was 5.92, the pIC50 [2] was under 4.00 and the pIC50 [3] was under 4.00.
`O=c1c(CCCCCc2cccnc2)cc2cccnc2n1-c1cccc([N+](=O)[O-])c1` [Example No. 16, 1-(3-Nitrophenyl)-3-[5-(pyridin-3-yl)pentyl]-1,8-naphthyridin-2(1H)-one] gave a pIC50 [1] of 5.72, a pIC50 [2] of 4.01 and a pIC50 [3] of 4.20.
In the case of `O=c1c(CCc2cccnc2)cc2cccnc2n1-c1cccc([N+](=O)[O-])c1` [Example No. 5, 1-(3-Nitrophenyl)-3-[2-(pyridin-3-yl)ethyl]-1,8-naphthyridin-2(1H)-one], the pIC50 [1] was 7.22, the pIC50 [2] was 4.66 and the pIC50 [3] was under 4.00.
Compound `O=c1c(CCc2ccncc2)cc2cccnc2n1-c1cccc([N+](=O)[O-])c1` [Example No. 6, 1-(3-Nitrophenyl)-3-[2-(pyridin-4-yl)ethyl]-1,8-naphthyridin-2(1H)-one] has a pIC50 [1] of 6.80, a pIC50 [2] of under 4.00 and a pIC50 [3] of under 4.00.
